The values below come from patent publication US20090175872A1, “Treatment of Conditions Involving Demyelination” (BIOGEN Idec MA Inc., priority 2005, published 2009).

No end group written: not given here. *: point of attachment. Biotin = O=C1N[C@H]2[C@H](CS[C@H]2CCCCC(=O)*)N1

The chains are these.
B1: AP-Sp35: human placental alkaline phosphatase with six histidine tag fused to human Sp35 residues 34-532 (protein, listed as Homo sapiens)
chain: TGCPPRCECSAQDRAVLCHRKRFVAVPEGIPTETRLLDLGKNRIKTLNQDEFASFPHLEELELNENIVSAVEPGAFNNLFNLRTLGLRSNRLKLIPLGVFTGLSNLTKLDISENKIVILLDYMFQDLYNLKSLEVGDNDLVYISHRAFSGLNSLEQLTLEKCNLTSIPTEALSHLHGLIVLRLRHLNINAIRDYSFKRLYRLKVLEISHWPYLDTMTPNCLYGLNLTSLSITHCNLTAVPYLAVRHLVYLRFLNLSYNPISTIEGSMLHELLRLQEIQLVGGQLAVVEPYAFRGLNYLRVLNVSGNQLTTLEESVFHSVGNLETLILDSNPLACDCRLLWVFRRRWRLNFNRQQPTCATPEFVQGKEFKDFPDVLLPNYFTCRRARIRDRKAQQVFVDEGHTVQFVCRADGDPPPAILWLSPRKHLVSAKSNGRLTVFPDGTLEVRYAQVQDNGTYLCIAANAGGNDSMPAHLHVRSYSPDWPHQPNKTFAFISNQPGE
modifications: alkaline phosphatase fusion partner
B2: AP-Sp35-Ig: AP-tagged Ig plus stalk domain of Sp35, amino acids 417-532 of SEQ ID NO:2 (protein, listed as Homo sapiens)
chain: RARIRDRKAQQVFVDEGHTVQFVCRADGDPPPAILWLSPRKHLVSAKSNGRLTVFPDGTLEVRYAQVQDNGTYLCIAANAGGNDSMPAHLHVRSYSPDWPHQPNKTFAFISNQPGE
modifications: AP tag fused
B3: AP-Sp35-LRR: AP-tagged LRR domain of Sp35, amino acids 34-417 of SEQ ID NO:2 (protein, listed as Homo sapiens)
chain: TGCPPRCECSAQDRAVLCHRKRFVAVPEGIPTETRLLDLGKNRIKTLNQDEFASFPHLEELELNENIVSAVEPGAFNNLFNLRTLGLRSNRLKLIPLGVFTGLSNLTKLDISENKIVILLDYMFQDLYNLKSLEVGDNDLVYISHRAFSGLNSLEQLTLEKCNLTSIPTEALSHLHGLIVLRLRHLNINAIRDYSFKRLYRLKVLEISHWPYLDTMTPNCLYGLNLTSLSITHCNLTAVPYLAVRHLVYLRFLNLSYNPISTIEGSMLHELLRLQEIQLVGGQLAVVEPYAFRGLNYLRVLNVSGNQLTTLEESVFHSVGNLETLILDSNPLACDCRLLWVFRRRWRLNFNRQQPTCATPEFVQGKEFKDFPDVLLPNYFTCRR
modifications: AP tag fused

The subject of one assay is co-cultures of dorsal root ganglion (DRG) neurons and oligodendrocytes. The experiment in a line: Myelination in co-cultures of DRG neurons and oligodendrocytes. Type of assay: cell-based, rat. The note with it: 4-week-old treated co-cultures, anti-MBP antibody. How it is done: The role of Sp35 in myelination was examined in vitro by treating co-cultures of dorsal root ganglion (DRG) neurons and oligodendrocytes with Sp35-Fc and testing for myelination by immunohistochemistry and electron microscopy. For these studies, it was necessary to first generate primary cultures of DRG neurons and of oligodendrocytes.
Female Long Evans rat E14-E17 embryonic dorsal root ganglia were cultured as described by Plant et al., J. Neurosci. 22:6083-91 (2002). Dissected DRGs were plated on poly-L-lysine-coated cover slips (100 μg/ml) for 2 weeks in the presence of fluorodeoxyuridine for days 2-6 and days 8-11 in NLA medium containing 1×B27, 100 ng/ml NGF (Invitrogen).
A2B5^+ oligodendrocytes were prepared as described in Example 1, and were harvested by trypsinization.
For coculture studies, A2B5^+ oligodendrocytes were added to DRG neuron drop cultures in the presence or absence of 10 μg/ml Sp35-Fc. The culture medium (Neurobasal medium supplemented with B27 and 100 ng/ml NGF) was changed, and fresh Sp35-Fc was added to the cells every 3 d. To identify changes in myelination, 2-week-old cultures were stained by immunohistochemical staining (“IHC”) for neurofilaments with anti-βIII-tubulin antibody to identify axons, or anti-MBP antibody to identify oligodendrocytes., and 4-week-old cultures were subjected to SDS-PAGE followed by western blot analyses to quantify the MBP. In selected examples, cells were fixed for electron microscopy studies by adding 2.5% gluteraldehyde directly onto the cover slips. Myelinated axons in the 2-week-old cultures were quantified by counting the number of myelinated internode bundles that were derived from single MBP^+ oligodendrocytes. Samples were analyzed in duplicate. Error bars denote individual determinations. P values in all studies were determined using a one-way analysis of variance. […]
We performed experiments to address the relative contributions to the myelination process of Sp35 in DRG neurons as compared to oligodendrocytes. We infected DRG neurons, oligodendrocytes and co-cultures (prepared as described in Example 5) with the FL-Sp35 and DN-Sp35 lentiviral vectors described in Example 1 and performed immunohistochemical straining for myelinated MBP^+ cells after two weeks. A 2-fold increase in MBP levels in co-cultures where both cells express DN-Sp35 and a 2-fold decrease in MBP levels in co-cultures where both cells express FL-Sp35 was observed (FIG. 10G).
As to “Ac-CLSPEKVC (also: cyclic, type not given here)”, the “expression of MBP (western blot)” value is reported as “no increase in MBP”. Still for that read-out and setting: the value for “Ac-CLSPRKHC (Ac-CLSPRKHC-NH2; also: cyclic, type not given here)” was “increased expression of MBP”; that for “Biotin-GSGCKHSPLRC (cysteine pairing not given here)” was “no increase in MBP”; that for “Biotin-GSGCLSPEKVC (cysteine pairing not given here)” was “no increase in MBP”. On to “Biotin-GSGCLSPRKHC (cysteine pairing not given here)”, for which the “expression of MBP (western blot)” value is reported as “increased expression of MBP”.

For the next assay, the target named is T1, human ErbB2 (Homo sapiens, UniProt P04626).
T1 construct: expressed in transfected cells; host or cells: CHO cells, transient transfection with Fugene 6, assayed after 48 hours
Briefly: AP-Sp35 binding to ErbB2-transfected CHO cells. The note with it: FIG. 17A; read-out: EC50 of binding to CHO cells expressing ErbB2. How it is done: ErbB2 is a member of the type I family of transmembrane receptor tyrosine kinases. The family comprises four members: epidermal growth factor receptor (EGFR or ErbB1), ErB2 (HER2 or neu), ErbB3 and ErbB4. Oligodendrocyte differentiation is positively regulated by the ErbB2 receptor tyrosine kinase. To examine the potential interaction between Sp35 and ErB2, an N-terminal AP-tagged human Sp35 protein was tested for binding to human ErbB2-transfected Chinese hamster ovary (CHO) cells.
90% confluent CHO cells were transfected with various combinations of human ErbB2 vector expression plasmid using Fugene 6 reagents (Roche). After 48 hours, the transfected cells were washed with HBH (Hank's balanced salt solution, 1 mg/ml BSA, 20 mM HEPES (pH 7.0)) and incubated for 1.5 hours at 23° C. or […] with 4 μg/ml of AP-Sp35 (human placental alkaline phosphotase (AP) with an N-terminal six histidine tag, fused to the C-terminus of human Sp35 (residues 34-532), as described in Mi et al., Nat. Neurosci. 7:221-228 (2004)) or control AP-protein in HBH. Bound AP-Sp35 was detected directly or following detergent lysis of the cells by ELISA and enzymatic activity was quantified with 4-NPP as described in Mi et al. Nat. Neurosci. 7:221-228 (2004).
In order to identify the Sp35 domain that binds ErbB2, soluble truncated forms of AP-Sp35 were tested for binding. Both the LRR domain of Sp35 (amino acids 34-417 of SEQ ID NO:2) (AP-Sp35-LRR) and the extracellular domain of Sp35 (amino acids 34-532 of SEQ ID NO:2) (AP-Sp35) bound to ErbB2 expressed in CHO cells. […] FIGS. 17B and 17C.
As usually defined, the EC50 is the concentration giving half of the maximal effect. With B1, the EC50 is 3 nM.

Staying with this assay, now noted: FIGS. 17B and 17C.
Turning to B2, the “binding to ErbB2 expressed in CHO cells” value was “no detectable binding”.

As for B1, the “binding to ErbB2 expressed in CHO cells” value is “bound”. Still for that read-out and setting: the value for B3 was “bound”.
